Holding throughout (experiment): Cell viability (CellTiter-Glo)
Holding throughout (assay type): cell-based
In general terms: In ATP-based viability assays light output follows the ATP content of the culture.

Assay [1] concerns Ba/F3 cells expressing EGFR_del19/L792H. To be noted: Mus musculus, BaF3, 72 h, read-out: Absolute EC50 (50% growth). The protocol:
(§1) A cell-based assay was used to evaluate the potency of Compound I on cells where the growth of the cells is either driven by EGFR wild type (WT) or cells comprising atypical mutant EGFR proteins. Cell viability was assessed following treatment with compounds and the assay developed with CellTiterGlo (CTG) reagent that measures ATP levels in cells. Compound I was dissolved in DMSO to generate a 10 mM stock solution. Dosing solutions were prepared by serial dilution in DMSO followed by dilution in complete media to result in a 0.4% DMSO in the assay. Ba/F3 cells expressing EGFR mutants EGFR_G719S, EGFR_G724S, EGFR_L718Q, EGFR_L718V, EGFR_L858R/1L718Q, EGFR_L858R/1L718V, EGFR_del19/L792K. EGFR_del19/G796S were generated following co-transfection of the EGFR mutant of interest with PhiC31 integrase. Two days following transfection, the media was changed and replaced with media lacking mIL3 with the addition of human EGF (hEGF) as well as puromycin to select stable cell lines. After the cell lines were established genomic DNA (gDNA) was extracted to confirm the sequence of the construct of interest. The culture Media for Ba/F3 EGFR mutants was RPMI+10% FBS+2 mM L-Glut±10 ng/ml hEGF+0.5 pig/ml puromycin. The following reagents were used to conduct the assays: RPMI1640 with phenol red (Corning, Cat #: 15-040-CV); Fetal Bovine Serum (FBS) (Omega Scientific, Cat #: FR-11); Human Epidermal Growth Factor (hEGF) (Cell Signaling Cat #8916SC); L-Glutamine (Corning, Cat #: 25-005-CI); Puromycin (Gibco, Cat #A11138-03); assay media was the same as culture medium; CellTiter-Glo® 2.0 Cell Viability Assay (Promega, Cat #G9243), DMSO (Sigma, Cat #: D2660). The following equipment was used to conduct the assays: Bravo Liquid Handler (Agilent #G5523BA); and the following supplies: 96-well Non-Sterile Polypropylene V Bottom Plates (Corning, Cat #: 3363); 384-well Sterile White with Flat Clear Bottom Plates (Greiner, 781098); and PerkinElmer TopSeal-A Plus plate seal (Cat. #6050185).
(§2) Ba/F3 cell lines expressing either EGFR WT or mutant proteins were cultured in complete culture media at exponential growth phase for at least one week prior to assay. The different cell suspensions were counted and seeded into 384-well Sterile White Flat Clear Bottom Plates using a Bravo liquid handler, according to the appropriate cell number in 36 μl of media per well as follows: (a) Ba/F3-WT-EGFR: 2000 cells per well of a 384 well plate; (b) Ba/F3-G719S-EGFR: 2000 cells per well of a 384 well plate; (c) Ba/F3 G724S-EGFR: 1000 cells per well of a 384 well plate; (d) Ba/F3-L718Q-EGFR: 1000 cells per well of a 384 well plate; (e) Ba/F3-L718V-EGFR: 1000 cells per well of a 384 well plate; (f) Ba/F3-L858R/L718Q-EGFR: 1000 cells per well of a 384 well plate; (g) Ba/F3-L858R/L718V-EGFR: 1000 cells per well of a 384 well plate; (h) Ba/F3-del19/L792H-EGFR: 1000 cells per well of a 384 well plate; (i) Ba/F3-del19/G796S-EGFR: 1000 cells per well of a 384 well plate.
(§3) Compound I was solubilized in DMSO as 10 mM stock solutions. These were stored as aliquots at −80° C. and used only once after thawing. The highest concentration of Compound I in the final assay plate was 500 nM. To prepare the compound dilutions intermediate dilution plates were prepared using the Bravo liquid handler by performing 12-point ⅓-fold serial dilutions in DMSO to a final concentration of 250-fold the concentration in the final assay plate, followed by a 1/25 dilution into complete assay media. Compound dilutions in media were added to cells (final assay plate) by dispensing 4 μL into cells plated the same day in 36 μl of medium of media. Plates were placed in a 37° C., 5% CO2 incubator. Following 72 hours of incubation, plates were left to equilibrate at room temperature before the addition of 1:1 ratio of CTG 2.0 using the Bravo liquid handler. […]

Assay [2] has as its system Ba/F3 cells expressing EGFR_G719S. To be noted: Mus musculus, BaF3; 72 hours; average ± standard deviation; read-out: Absolute EC50 (50% growth). The protocol: as §1, §2, §3
Assay [3] has as its system Ba/F3 cells expressing EGFR_L718Q. The settings on record: Mus musculus, BaF3; 72 hours; average ± standard deviation; read-out: Absolute EC50 (50% growth). The protocol:
as §1, §2, §3

The test system of assay [4] is Ba/F3 cells expressing EGFR_L718V. The settings on record: Mus musculus, BaF3; 72 hours; average ± standard deviation; read-out: Absolute EC50 (50% growth). The protocol:
as §1, §2, §3

Assay [5] deals with Ba/F3 cells expressing EGFR_L858R/L718V. To be noted: Mus musculus, BaF3; 72 hours; average ± standard deviation; read-out: Absolute EC50 (50% growth). The protocol:
as §1, §2, §3

Assay [6] relates to Ba/F3 cells expressing EGFR WT. To be noted: Mus musculus, BaF3; 72 hours; average ± standard deviation; read-out: Absolute EC50 (50% growth). The protocol:
as §1, §2, §3

Assay [7] relates to Ba/F3 cells expressing EGFR_L858R/L718Q. To be noted: Mus musculus, BaF3; 72 hours; average ± standard deviation; read-out: Absolute EC50 (50% growth). The protocol:
as §1, §2, §3

In assay [8] the test system is Ba/F3 cells expressing EGFR_del19/G796S. The settings on record: Mus musculus, BaF3; 72 hours; average ± standard deviation; read-out: Absolute EC50 (50% growth). The protocol:
as §1, §2, §3

Assay [9] has as its system Ba/F3 cells expressing EGFR_G724S. The settings on record: Mus musculus, BaF3; 72 hours; average ± standard deviation; read-out: Absolute EC50 (50% growth). The protocol:
as §1, §2, §3

Broadly, the EC50 is the concentration that produces a half-maximal response. Consider `C=CC(=O)Nc1cc(Nc2cc(N3OCC[C@@H]3c3cc(F)cc(F)c3)ncn2)c(OC)cc1N1CCC(N2CCN(C3CC3)CC2)CC1` [Compound I, N-[2-[4-(4-cyclopropyl-1-piperazinyl)-1-piperidinyl]-5-[[6-[(3R)-3-(3,5-difluorophenyl)-2-isoxazolidinyl]-4-pyrimidinyl]amino]-4-methoxyphenyl]-2-propenamide], for which the EC50 was determined as 2.5 ± 1.8 nM in assay [1]; 0.7 ± 0.1 nM in assay [2]; 27.1 ± 6.4 nM in assay [3]; 0.9 ± 0.8 nM in [4]; 0.2 ± 0.2 nM in assay [5]; 6.6 ± 4.3 nM in assay [6]. In addition, the concentration for a half-maximal effect (EC50) in assay [7] is 0.8 ± 0.5 nM; in assay [8], 1.1 ± 0.7 nM; in assay [9] it was 1.4 ± 0.9 nM.

These data come from patent US20260306491A1, “EGFR INHIBITOR FOR TREATING CANCERS COMPRISING ATYPICAL EGFR MUTATIONS” (ORIC Pharmaceuticals, Inc., priority 2023, published 2026).
